Source: patent publication US6770636B2, “Phenyl-and phenylalkyl-substituted ethanolamines and ethylenediamines” (Boehringer Ingelheim Pharma KG, priority 2000, dated 2004)
Counter-ions that a name gives are not always drawn.

Molecule `C=C(C)C1CC=C(CNCC(OCCCc2c(F)cccc2F)c2c(C)cccc2C)CC1` (stereo not shown) (as salt: hydrochloride) [Example 25, N-[2-[3-(2,6-difluorophenyl)propoxy]-2-(2,6-dimethylphenyl)ethyl]-N-(4-isopropenylcyclohexen-1-ylmethyl)amine] has a melting point of 155 °C. `Cc1cccc(C)c1C(CN1CCCCC1)OCc1ccc(Br)cc1Cl` (stereo not shown) (as salt: hydrochloride) [Example 43, 1-[2-(2-chloro-4-bromobenzyloxy)-2-(2,6-dimethylphenyl)ethyl]piperidine] gave a melting point of 222 to 224 °C. In the case of `Cc1cccc(C)c1C(CNCc1ccccc1)OCCCc1c(F)cccc1F` (stereo not shown) (as salt: hydrochloride) [Example 23, N-[2-[3-(2,6-difluorophenyl)propoxy]-2-(2,6-dimethylphenyl)ethyl]-N-benzylamine], the melting point is reported as 176 °C. Work on `Cc1cccc(C)c1C(CN1CCCCC1)NCCCc1c(F)cccc1F` (stereo not shown) (as salt: hydrochloride) [Example 35, [3-(2,6-difluorophenyl)propyl]-[1-(2,6-dimethylphenyl)-2-piperidin-1-ylethyl]amine] yielded a melting point of 145 °C. `Cc1cccc(C)c1C(CN(Cc1ccccc1)Cc1ccccc1)OCCCc1c(F)cccc1F` (stereo not shown) (as salt: hydrochloride) [Example 24, N-[2-[3-(2,6-difluorophenyl)propoxy]-2-(2,6-dimethylphenyl)ethyl]-N,N-bis(benzyl)amine] gave a melting point of 108 °C. `Cc1cccc(C)c1C(CN1CCCCC1)OCCCc1c(F)cccc1F` (stereo not shown) (as salt: hydrochloride) [Example 14, 1-[2-[3-(2,6-difluorophenyl)propoxy]-2-(2,6-dimethylphenyl)ethyl]piperidine] gave a melting point of over 200 °C. Work on `Cc1cccc(C)c1C(CN(C)CC1CC1)OCCCc1c(F)cccc1F` (stereo not shown) [Example 10, N-[2-[3-(2,6-difluorophenyl)propoxy]-2-(2,6-dimethylphenyl)ethyl]-N-cyclopropylmethyl-N-methylamine] yielded a melting point of 78 °C. Work on `Cc1cccc(C)c1C(CN1CCCCC1)OCc1c(Cl)cccc1Cl` (stereo not shown) (as salt: hydrochloride) [Example 41, 1-[2-(2,6-dichlorobenzyloxy)-2-(2,6-dimethylphenyl)ethyl]piperidine] yielded a melting point of 225 to 227 °C. Molecule `Cc1cccc(C)c1C(CN1CCCCC1)OCc1ccccc1` (stereo not shown) (as salt: hydrochloride) [Example 38, 1-[2-benzyloxy-2-(2,6-dimethylphenyl)ethyl]piperidine] has a melting point of 197 to 199 °C. `Cc1cccc(C)c1C(C[N+](C)(C)C)OCCCc1c(F)cccc1F.[I-]` (stereo not shown) showed a melting point of 190 °C. In the case of `Cc1cccc(C)c1C(CN1CCCCC1)OCc1ccc(Br)cc1` (stereo not shown) (as salt: hydrochloride) [Example 39, 1-[2-(4-bromobenzyloxy)-2-(2,6-dimethylphenyl)ethyl]piperidine], the melting point is reported as 152 to 154 °C. In the case of `Cc1cccc(C)c1C(CN1CCCCC1)OCc1ccc(Cl)cc1` (stereo not shown) (as salt: hydrochloride) [Example 40, 1-[2-(4-chlorobenzyloxy)-2-(2,6-dimethylphenyl)ethyl]piperidine], the melting point is reported as 134 to 135 °C. With `Cc1cccc(C)c1C(CN1CCCCC1)OCc1c(F)cccc1F` (stereo not shown) (as salt: hydrochloride) [Example 42, 1-[2-(2,6-difluorobenzyloxy)-2-(2,6-dimethylphenyl)ethyl]piperidine] the melting point was 183 to 185 °C.
